PubChem BioAssay AID1963426 (Molecular Pharmacology Branch, DTP, NCI, 2024)
pIC50: −log10 of the molar value. Values joined by “and” are separate entries in the source; they are usually repeats but may differ in a detail not shown here. Identical values can stand only once.

Test system: 186277-243-T-J2-PDC complex spheroid growth, % test/control
Assay: Anticancer human tumor 186277-243-T-J2-PDC patient-derived colon adenocarcinoma cell line growth inhibition [Asc]
Details: for viability, T/C: stronger effect = lower value
In short: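 Spheroid model: tumor line + HUVEC + hMSC. Single agents and combinations; top conc. at/near clinical Cmax (10 microM if undetermined), half-log dilutions. DMSO stocks at 800-fold test concentration.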

[1] = curve of first compound, second compound 0.01 µM
[2] = curve of first compound, second compound 0.0316 µM
[3] = curve of first compound, second compound 0.1 µM
[4] = curve of first compound, second compound 0.316 µM
[5] = curve of first compound, second compound 1 µM
[6] = second compound 0.01 µM, first compound 0.0316 µM
[7] = second compound 0.01 µM, first compound 0.1 µM
[8] = second compound 0.01 µM, first compound 0.316 µM
[9] = second compound 0.01 µM, first compound 1 µM
[10] = second compound 0.0316 µM, first compound 0.0316 µM
[11] = second compound 0.0316 µM, first compound 0.1 µM
[12] = second compound 0.0316 µM, first compound 0.316 µM
[13] = second compound 0.0316 µM, first compound 1 µM
[14] = second compound 0.1 µM, first compound 0.00316 µM
[15] = second compound 0.1 µM, first compound 0.01 µM
[16] = second compound 0.1 µM, first compound 0.0316 µM
[17] = second compound 0.1 µM, first compound 0.1 µM
[18] = second compound 0.1 µM, first compound 0.316 µM
[19] = second compound 0.1 µM, first compound 1 µM
[20] = second compound 0.316 µM, first compound 0.00316 µM
[21] = second compound 0.316 µM, first compound 0.01 µM
[22] = second compound 0.316 µM, first compound 0.0316 µM
[23] = second compound 0.316 µM, first compound 0.1 µM
[24] = second compound 0.316 µM, first compound 0.316 µM
[25] = second compound 0.316 µM, first compound 1 µM
[26] = second compound 1 µM, first compound 0.00316 µM
[27] = second compound 1 µM, first compound 0.01 µM
[28] = second compound 1 µM, first compound 0.0316 µM
[29] = second compound 1 µM, first compound 0.1 µM
[30] = second compound 1 µM, first compound 0.316 µM
[31] = second compound 1 µM, first compound 1 µM
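Further: spheroids exposed to agents for 7 days.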
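Wherever viability, T/C is given: 100% = DMSO vehicle control wells.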

CCN1CCN(Cc2ccc(Nc3ncc(F)c(-c4cc(F)c5nc(C)n(C(C)C)c5c4)n3)nc2)CC1 + CNC(C)C(=O)NC1CN(S(=O)(=O)c2cccc(S(=O)(=O)N3CCC4CCC(C(=O)NC(c5ccccc5)c5ccccc5)N4C(=O)C(NC(=O)C(C)NC)C3)c2)CCC2CCC(C(=O)NC(c3ccccc3)c3ccccc3)N2C1=O
pIC50 [1]: < 6.00
pIC50 [2]: < 6.00
pIC50 [3]: < 6.00
pIC50 [4]: < 6.00
pIC50 [5]: < 6.00
viability, T/C (second compound 0.01 µM, first compound 0.00316 µM): 85.5%
viability, T/C (second compound 0.01 µM, first compound 0.01 µM): 110%
viability, T/C [6]: 109%
viability, T/C [7]: 129%
viability, T/C [8]: 123%
viability, T/C [9]: 114%
viability, T/C (second compound 0.0316 µM, first compound 0.00316 µM): 111%
viability, T/C (second compound 0.0316 µM, first compound 0.01 µM): 90.2%
viability, T/C [10]: 114%
viability, T/C [11]: 114%
viability, T/C [12]: 143%
viability, T/C [13]: 120%
viability, T/C [14]: 112%
viability, T/C [15]: 120%
viability, T/C [16]: 118%
viability, T/C [17]: 132%
viability, T/C [18]: 143%
viability, T/C [19]: 107%
viability, T/C [20]: 107%
viability, T/C [21]: 108%
viability, T/C [22]: 126%
viability, T/C [23]: 131%
viability, T/C [24]: 134%
viability, T/C [25]: 110%
viability, T/C [26]: 120%
viability, T/C [27]: 113%
viability, T/C [28]: 118%
viability, T/C [29]: 138%
viability, T/C [30]: 148%
viability, T/C [31]: 120%

C=C(F)C(=O)N1CCN(c2nc(OCC3CCCN3C)nc3c2CCN(c2cccc4cccc(Cl)c24)C3)CC1CC#N (stereo unspecified)
viability, T/C (compound 0.0316 µM): 107% and 98.5% and 102%
viability, T/C (compound 0.1 µM): 112% and 77.5% and 116%
viability, T/C (compound 0.316 µM): 107% and 83.6% and 103%
viability, T/C (compound 1 µM): 103% and 77.3% and 80.7%
viability, T/C (compound 3.16 µM): 96.5% and 85% and 109%
pIC50 (curve of compound): 5.24 and 5.29 and 5.03

O=C(c1cc(Cc2n[nH]c(=O)c3ccccc23)ccc1F)N1CCN(C(=O)C2CC2)CC1 + CNC(C)C(=O)NC1CN(S(=O)(=O)c2cccc(S(=O)(=O)N3CCC4CCC(C(=O)NC(c5ccccc5)c5ccccc5)N4C(=O)C(NC(=O)C(C)NC)C3)c2)CCC2CCC(C(=O)NC(c3ccccc3)c3ccccc3)N2C1=O
pIC50 [1]: < 5.00
pIC50 [2]: < 5.00
pIC50 [3]: < 5.00
pIC50 [4]: < 5.00
pIC50 [5]: < 5.00
viability, T/C [6]: 95.4%
viability, T/C [7]: 116%
viability, T/C [8]: 111%
viability, T/C [9]: 120%
viability, T/C (second compound 0.01 µM, first compound 3.16 µM): 121%
viability, T/C (second compound 0.01 µM, first compound 10 µM): 147%
viability, T/C [10]: 114%
viability, T/C [11]: 102%
viability, T/C [12]: 99.1%
viability, T/C [13]: 114%
viability, T/C (second compound 0.0316 µM, first compound 3.16 µM): 123%
viability, T/C (second compound 0.0316 µM, first compound 10 µM): 156%
viability, T/C [16]: 111%
viability, T/C [17]: 112%
viability, T/C [18]: 114%
viability, T/C [19]: 123%
viability, T/C (second compound 0.1 µM, first compound 3.16 µM): 129%
viability, T/C (second compound 0.1 µM, first compound 10 µM): 149%
viability, T/C [22]: 98.2%
viability, T/C [23]: 104%
viability, T/C [24]: 104%
viability, T/C [25]: 117%
viability, T/C (second compound 0.316 µM, first compound 3.16 µM): 142%
viability, T/C (second compound 0.316 µM, first compound 10 µM): 148%
viability, T/C [28]: 99.3%
viability, T/C [29]: 111%
viability, T/C [30]: 106%
viability, T/C [31]: 114%
viability, T/C (second compound 1 µM, first compound 3.16 µM): 125%
viability, T/C (second compound 1 µM, first compound 10 µM): 159%

NC1CCC(NC2CC2c2ccccc2)CC1 (stereo unspecified) + Cc1c(S(C)(=O)=O)c(-c2cc(F)cc(N3CCN(c4ccc(NS(=O)(=O)c5ccc(NC(CCN6CCC(C(=O)OCCCP(=O)(O)O)CC6)CSc6ccccc6)c(S(=O)(=O)C(F)(F)F)c5)cc4)CC3)c2)c(-c2ccc(Cl)cc2)n1C(C)C
pIC50 [3]: < 7.00
pIC50 [4]: < 7.00
pIC50 [5]: < 7.00
pIC50 (curve of first compound, second compound 3.16 µM): < 7.00
pIC50 (curve of first compound, second compound 10 µM): < 7.00
viability, T/C (second compound 0.1 µM, first compound 0.000316 µM): 102%
viability, T/C (second compound 0.1 µM, first compound 0.001 µM): 102%
viability, T/C [14]: 96.9%
viability, T/C [15]: 94.8%
viability, T/C [16]: 94.4%
viability, T/C [17]: 91.3%
viability, T/C (second compound 0.316 µM, first compound 0.000316 µM): 124%
viability, T/C (second compound 0.316 µM, first compound 0.001 µM): 94.3%
viability, T/C [20]: 111%
viability, T/C [21]: 104%
viability, T/C [22]: 89.9%
viability, T/C [23]: 78.1%
viability, T/C (second compound 1 µM, first compound 0.000316 µM): 99.8%
viability, T/C (second compound 1 µM, first compound 0.001 µM): 103%
viability, T/C [26]: 113%
viability, T/C [27]: 93%
viability, T/C [28]: 96.7%
viability, T/C [29]: 89%
viability, T/C (second compound 3.16 µM, first compound 0.000316 µM): 103%
viability, T/C (second compound 3.16 µM, first compound 0.001 µM): 104%
viability, T/C (second compound 3.16 µM, first compound 0.00316 µM): 100%
viability, T/C (second compound 3.16 µM, first compound 0.01 µM): 92.1%
viability, T/C (second compound 3.16 µM, first compound 0.0316 µM): 95.6%
viability, T/C (second compound 3.16 µM, first compound 0.1 µM): 91.3%
viability, T/C (second compound 10 µM, first compound 0.000316 µM): 98.3%
viability, T/C (second compound 10 µM, first compound 0.001 µM): 101%
viability, T/C (second compound 10 µM, first compound 0.00316 µM): 97.8%
viability, T/C (second compound 10 µM, first compound 0.01 µM): 92.8%
viability, T/C (second compound 10 µM, first compound 0.0316 µM): 97.8%
viability, T/C (second compound 10 µM, first compound 0.1 µM): 98%
